In general, inhibition refers to the share of the control response that was lost under treatment. What is called thermodynamic solubility is the concentration in solution at equilibrium with solid. By IC50 is commonly meant the concentration needed to halve the response being measured.

Experimental findings from ChEMBL document CHEMBL6182883, “Discovery of a series of novel 3-sulfonamido benzoic acid derivatives as promising P2Y14R antagonists for acute lung injury” (Eur J Med Chem, 2025) are described below.

Each structure is given as a SMILES string. Activity calls are given as the source filed them. The rule behind the calls is not given here.

The target of data set [1] is T1, P2Y purinoceptor 14 (Homo sapiens) (UniProt Q15391).
T1 sequence (whole entry): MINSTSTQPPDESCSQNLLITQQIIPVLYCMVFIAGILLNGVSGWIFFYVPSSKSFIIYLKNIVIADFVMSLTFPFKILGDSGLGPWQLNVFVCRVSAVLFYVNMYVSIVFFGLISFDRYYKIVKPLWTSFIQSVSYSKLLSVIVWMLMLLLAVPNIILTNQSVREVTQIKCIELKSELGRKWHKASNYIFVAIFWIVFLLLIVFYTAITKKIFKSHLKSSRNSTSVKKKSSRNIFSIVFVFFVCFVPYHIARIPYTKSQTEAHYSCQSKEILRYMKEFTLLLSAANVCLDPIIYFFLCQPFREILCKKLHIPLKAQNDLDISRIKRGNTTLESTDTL
Nature of the data set: Antagonist activity at human P2Y14R expressed in HEK293 cells assessed as inhibition of UDPG-induced Ca2+ level at 5 uM by Fluo-4 dye based fluorescence assay relative to control. Format: functional, cell-based.

Data set [2] in a line: Aqueous solubility of the compound in pH 7.4 PBS buffer measured after 24 hrs by shake flask method. The format is physicochemical.
Data set [3] in a line: Aqueous solubility of the compound in pH 4 PBS buffer measured after 24 hrs by shake flask method. The format is physicochemical.
The next data set deals with T2, P2Y purinoceptor 14 (Homo sapiens, UniProt Q15391).
T2 sequence (Q15391 whole entry): T1 sequence (whole entry)
Description: Antagonist activity at human P2Y14R expressed in HEK293 cells assessed as inhibition of UDPG-induced Ca2+ level by Fluo-4 dye based fluorescence assay. The format is functional, cell-based.

Data set [4] relates to Mus musculus. Description: Antiinflammatory activity in LPS-induced C57BL/6 mouse ALI model assessed as reduction in IL-1beta expression in BALF at 2 mg/kg, po administered once daily via gavage for 7 days followed by endotoxin challenge at 1 hr post last dose and subsequent LPS stimulation and measured after 24 hrs by ELISA. The format is functional, organism-based. To be noted: time 8.0 day. On the technique in general: An ELISA detects its analyte on a solid surface through an enzyme-linked reagent.

For data set [5], the system named is Mus musculus. Nature of the data set: Antiinflammatory activity in LPS-induced C57BL/6 mouse ALI model assessed as reduction in neutrophil infiltration at 2 mg/kg, po administered once daily via gavage for 7 days followed by endotoxin challenge at 1 hr post last dose and subsequent LPS stimulation and measured after 24 hrs by H and E staining based histopathological assay. The format is functional, organism-based. Conditions: time 8.0 day.

Data set [6] has as its system Mus musculus. Description: Antiinflammatory activity in LPS-induced C57BL/6 mouse ALI model assessed as reduction in IL-6 expression in BALF at 2 mg/kg, po administered once daily via gavage for 7 days followed by endotoxin challenge at 1 hr post last dose and subsequent LPS stimulation and measured after 24 hrs by ELISA. Conditions: time 8.0 day. Format: functional, organism-based.

Data set [7] concerns Mus musculus. Nature of the data set: Antiinflammatory activity in LPS-induced C57BL/6 mouse ALI model assessed as reduction in MPO level in BALF at 2 mg/kg, po administered once daily via gavage for 7 days followed by endotoxin challenge at 1 hr post last dose and subsequent LPS stimulation and measured after 24 hrs by ELISA. Format: functional, organism-based. Conditions: time 8.0 day.

The test system of data set [8] is Mus musculus. Nature of the data set: Antiinflammatory activity in LPS-induced C57BL/6 mouse ALI model assessed as reduction in TNF-alpha expression in BALF at 2 mg/kg, po administered once daily via gavage for 7 days followed by endotoxin challenge at 1 hr post last dose and subsequent LPS stimulation and measured after 24 hrs by ELISA. Format: functional, organism-based. Conditions: time 8.0 day.

Data set [9] has as its system Mus musculus. Description: Antiinflammatory activity in LPS-induced C57BL/6 mouse ALI model assessed as reduction in alveolar wall thickening at 2 mg/kg, po administered once daily via gavage for 7 days followed by endotoxin challenge at 1 hr post last dose and subsequent LPS stimulation and measured after 24 hrs by H and E staining based histopathological assay. Format: functional, organism-based. Conditions: time 8.0 day.

Turning to `O=C(O)c1cc(NS(=O)(=O)Cc2ccc(F)cc2)cc(-c2ccc(C3CCNCC3)cc2)c1`, in data set [1] (filed as antagonist), the inhibition is 82.8%.
Take `O=C(O)c1cc(-c2ccc(C3CCNCC3)cc2)c2ccc(-c3ccc(C(F)(F)F)cc3)cc2c1` [PPTN]: the thermodynamic solubility at 24 h in data set [2] and in [3] was below 10 µg/mL in each case.
Turning to `O=C(O)c1cc(NS(=O)(=O)c2ccc([N+](=O)[O-])cc2)cc(-c2ccc(C3CCNCC3)cc2)c1`, the inhibition in data set [1] (filed as antagonist) was 82.6%.
`O=C(O)c1cc(NS(=O)(=O)c2cccc(F)c2)cc(-c2ccc(C3CCNCC3)cc2)c1`: the inhibition in [1] (filed as antagonist) is 76.2%.
As to `O=C(O)c1cc(NS(=O)(=O)Cc2ccc(C(F)(F)F)cc2)cc(-c2ccc(C3CCNCC3)cc2)c1`, the IC50 on P2Y purinoceptor 14 is 24.2 nM. In addition, the inhibition in [1] (filed as antagonist) worked out at 96.5%.
For the molecule `O=C(O)c1cc(NS(=O)(=O)CCc2ccc(Br)cc2)cc(-c2ccc(C3CCNCC3)cc2)c1`, the IC50 on P2Y purinoceptor 14 worked out at 19.6 nM. In addition, the inhibition in [1] (filed as antagonist) was determined as 96.7%.
Regarding `O=C(O)c1cc(NS(=O)(=O)CCc2ccccc2)cc(-c2ccc(C3CCNCC3)cc2)c1`, the inhibition in data set [1] (filed as antagonist) came out at 82.7%.
With `O=C(O)c1cc(NS(=O)(=O)CCc2ccc(F)cc2)cc(-c2ccc(C3CCNCC3)cc2)c1`, on P2Y purinoceptor 14, the IC50 worked out at 42.6 nM. Moreover, in [1] (filed as antagonist), the inhibition came out at 85.4%.
The like results for `O=C(O)c1cc(NS(=O)(=O)CCc2ccccc2F)cc(-c2ccc(C3CCNCC3)cc2)c1` were, in that order, 38.2 nM and 86.4%.
In the case of `O=C(O)c1cc(NS(=O)(=O)Cc2ccc(Br)cc2)cc(-c2ccc(C3CCNCC3)cc2)c1`, the inhibition in data set [1] (filed as antagonist) is 83.1%.
The same measure, in the same setting: the figure for `O=C(O)c1cc(NS(=O)(=O)Cc2ccccc2F)cc(-c2ccc(C3CCNCC3)cc2)c1` is 80.6%; for `O=C(O)c1cc(NS(=O)(=O)c2ccccc2F)cc(-c2ccc(C3CCNCC3)cc2)c1` it is 82.3%; for `O=C(O)c1cc(NS(=O)(=O)c2ccc(-c3ccc(Cl)cc3)cc2)cc(-c2ccc(C3CCNCC3)cc2)c1` it is 79.4%.
Consider `C[C@@H]1C[C@H]2[C@@H]3CCC4=CC(=O)C=C[C@]4(C)[C@@]3(F)[C@@H](O)C[C@]2(C)[C@@]1(O)C(=O)CO`, for which the result in the data set with Mus musculus [4], with Mus musculus [5], in the data set with Mus musculus [6], with Mus musculus [7], with Mus musculus [8] and in the data set with Mus musculus [9] was Active.
In the case of `O=C(O)c1cc(NS(=O)(=O)c2ccc(-c3ccccc3F)cc2)cc(-c2ccc(C3CCNCC3)cc2)c1`, the inhibition in [1] (filed as antagonist) is 43.6%.
On the same count and under the same terms, the value for `O=C(O)c1cc(NS(=O)(=O)Cc2ccc(Cl)cc2)cc(-c2ccc(C3CCNCC3)cc2)c1` was 80.1%.
Take `O=C(O)c1cc(NS(=O)(=O)c2ccc(F)cc2)cc(-c2ccc(C3CCNCC3)cc2)c1`: the IC50 at P2Y purinoceptor 14 was 49.6 nM. Besides, in [1] (filed as antagonist), the inhibition was 85.2%.
Take `CC(C)c1ccc(S(=O)(=O)Nc2cc(C(=O)O)cc(-c3ccc(C4CCNCC4)cc3)c2)cc1`: the inhibition in [1] (filed as antagonist) came out at 69.5%.
For `O=C(O)c1cc(NS(=O)(=O)c2ccc(C(F)(F)F)cc2)cc(-c2ccc(C3CCNCC3)cc2)c1`, the IC50 at P2Y purinoceptor 14 was determined as 23.2 nM. Besides, the inhibition in data set [1] (filed as antagonist) came to 90.8%.
Consider `O=C(O)c1cc(NS(=O)(=O)c2ccc(-c3ccccc3)cc2)cc(-c2ccc(C3CCNCC3)cc2)c1`, for which the inhibition in data set [1] (filed as antagonist) came out at 60.5%.
The same measure, in the same setting: the figure for `O=C(O)c1cc(NS(=O)(=O)c2ccc(-c3ccc(C(F)(F)F)cc3)cc2)cc(-c2ccc(C3CCNCC3)cc2)c1` is 76.5%.
As to `COc1ccccc1S(=O)(=O)Nc1cc(C(=O)O)cc(-c2ccc(C3CCNCC3)cc2)c1`, the inhibition in data set [1] came to 14.3%.
On to `O=C(O)c1cc(NS(=O)(=O)c2ccc(OC(F)(F)F)cc2)cc(-c2ccc(C3CCNCC3)cc2)c1`, for which the inhibition in [1] was 32.1%.
As to `O=C(O)c1cc(NS(=O)(=O)c2ccc(-c3ccc(Br)cc3)cc2)cc(-c2ccc(C3CCNCC3)cc2)c1`, the inhibition in data set [1] (filed as antagonist) came to 68.9%.
Still for that read-out and setting: the figure for `O=C(O)c1cc(NS(=O)(=O)Cc2ccccc2)cc(-c2ccc(C3CCNCC3)cc2)c1` is 81.6%; for `CC(C)(C)c1ccc(S(=O)(=O)Nc2cc(C(=O)O)cc(-c3ccc(C4CCNCC4)cc3)c2)cc1` it is 49.6%; for `O=C(O)c1cc(NS(=O)(=O)c2ccc(-c3ccc(F)cc3)cc2)cc(-c2ccc(C3CCNCC3)cc2)c1` it is 59.7%.
On the same count and under the same terms, the figure for `O=C(O)c1cc(NS(=O)(=O)c2ccccc2)cc(-c2ccc(C3CCNCC3)cc2)c1` is 81.5%.
As to `COc1ccc(S(=O)(=O)Nc2cc(C(=O)O)cc(-c3ccc(C4CCNCC4)cc3)c2)cc1OC`, the inhibition in data set [1] is 23.5%.
For `O=C(O)c1cc(NS(=O)(=O)Cc2ccc([N+](=O)[O-])cc2)cc(-c2ccc(C3CCNCC3)cc2)c1`, the IC50 on P2Y purinoceptor 14 was 20.6 nM. In data set [1] (filed as antagonist), the inhibition was found to be 88.6%.
For `O=C(O)c1cc(NS(=O)(=O)c2ccc(-c3ccc([N+](=O)[O-])cc3)cc2)cc(-c2ccc(C3CCNCC3)cc2)c1`, the inhibition in [1] (filed as antagonist) came out at 65.1%.
Still for that read-out and setting: the value for `O=C(O)c1cc(NS(=O)(=O)c2ccc(Cl)cc2)cc(-c2ccc(C3CCNCC3)cc2)c1` was 80.9%; that for `COc1cccc(S(=O)(=O)Nc2cc(C(=O)O)cc(-c3ccc(C4CCNCC4)cc3)c2)c1` was 47.8%.
Same read-out and setting: the value for `Cc1ccc(S(=O)(=O)Nc2cc(C(=O)O)cc(-c3ccc(C4CCNCC4)cc3)c2)cc1` was 50.6%.
`O=C(O)c1cc(NS(=O)(=O)c2ccc(Br)cc2)cc(-c2ccc(C3CCNCC3)cc2)c1`: the inhibition in [1] (filed as antagonist) stood at 81%.
The same measure, in the same setting: the value for `COc1ccc(S(=O)(=O)Nc2cc(C(=O)O)cc(-c3ccc(C4CCNCC4)cc3)c2)cc1` was 70.8%.
Regarding `O=C(O)c1cc(NS(=O)(=O)CCc2ccc(Cl)cc2)cc(-c2ccc(C3CCNCC3)cc2)c1`, the IC50 at P2Y purinoceptor 14 came to 28.6 nM. Besides, in data set [1] (filed as antagonist), the inhibition was 92.6%.
